Assay results as given in patent publication US20240287545A1, “Improved lysis procedures” (uniQure biopharma B.V., priority 2021, published 2024).

System: baculovirus
Test: TCID50 assay of infectious baculovirus titer after lysis (baculovirus clearance)
Assay type: cell-based
Details: for baculovirus clearance, TCID50 results: study 1, after detergent treatment (FIG. 3); for baculovirus clearance, TCID50 samples: study 2, CLB, all concentrations tested (0.25% through 1%), bulk material 7.8 log TCID50/mL
Excerpt: A reduction in titer of a rod-like shaped virus, i.e., the factor by which the titer of the virus to be removed is decreased, is preferably at least 5 logs, e.g. after a mixed population of parvoviral particles and 10×10^1 baculoviral virions had been separated in accordance with a method of the invention, no baculoviral virions were then detected in the filtrate. Preferably, the reduction in titer of a rod-like shaped virus that is achieved by a method of the invention is at least 5.5 logs, at least 6 logs, at least 6.5 logs, at least 7 logs, at least 8 logs, at least 9 logs, most preferably at least 10 logs. The titer can be determined by general methods known in the art, such as for example by a Tissue Culture Infectious Dose 50% (TCID50) assay. For example, the infectious baculovirus titer of a population of baculoviral virions in a sample can be determined using a TCID50 assay. This method is based on the infection of monolayers of Sf9 insect cells with infectious baculovirus in a positive control sample. A serial dilution in culture medium of the positive control sample is used to infect the cells. The cells are incubated at +28° C. for 7 days. Subsequently, the supernatants are transferred to newly prepared plates with monolayers of Sf9 insect cells and incubated at +28° C. for 7 days. As infection proceeds, the infected cells are not able to remain attached to each other and to the plate surface and form loose cells, i.e., show cytopathogenic effect (CPE), which can be observed microscopically. The titer in log 10 TCID50/mL is calculated using the Spearman-KArber method.
Analytics performed on samples during these studies included: qPCR to determine vector genome copies (GC) concentration (GC/mL), SEC-HPLC was used to determine total particle (TP) content (TP/mL) which includes empty and full particles which can only be done of samples after affinity chromatography. A TCID50 assay is a measure of infectious baculovirus titer and is used to test clearance of baculovirus after the lysis step where the detergent is added. Potency was determined based on the ability of the product to mediate production of active transgene polypeptide product (here FIX) by Huh-7 cells as compared to a reference sample. Huh-7 cells are infected and cultured to allow production of transgene polypeptide which is then quantified using a commercially obtained activity assay (221805 or 221806 from Hyphen Biomed). LDAO clearance in the drug substance (DS) was measured with an outsourced commercially available chromatographic method.
4.1 different surfactants can be used This first study involved crude bulk material generation using a shaker flask-based protocol following the process outlined in Example 1, until affinity chromatography; where the batch binding method was used. […]

SMILES	baculovirus clearance, TCID50 results	baculovirus clearance, TCID50 samples
CCCCCCCCCCCCO[C@@H]1O[C@H](CO)[C@@H](O[C@H]2O[C@H](CO)[C@@H](O)[C@H](O)[C@H]2O)[C@H](O)[C@H]1O [DDM, n-dodecyl-beta-D-maltoside]	below the limit of detection	below the limit of detection
CCCCCCCCCCCC[N+](C)(C)[O-] [LDAO, lauryldimethylamine oxide]	below the limit of detection	below the limit of detection
